In patent US20260176250A1, “TRIAZINONE DERIVATIVES AS NLRP3 INHIBITORS” (Hoffmann-La Roche Inc., priority 2022, published 2026):

How the values were obtained:
NLRP3 [1] = target: T1, NLRP3 (Homo sapiens, UniProt Q96P20); assay: THP-1 cells pyroptosis assay; type: cell-based; settings: LPS 1 μg/ml, nigericin 5 μM, resazurin readout
Description: THP-1 cells (ATCC #TIB-202) were grown in RPMI containing L-glutamine (Gibco #11835) supplemented with 1 mM sodium pyruvate (Sigma #S8636) and penicillin (100 units/ml)/streptomycin (0.1 mg/ml) (Sigma #P4333) in 10% Fetal Bovine Serum (FBS) (Sigma #F0804). The cells were routinely passaged and grown to confluency (˜10^6 cells/ml). On the day of the experiment, THP-1 cells were harvested and resuspended into RPMI medium (without FBS). The cells were then counted and viability (>90%) checked by Trypan blue (Sigma #T8154). Appropriate dilutions were made to give a concentration of 625,000 cells/ml. To this diluted cell solution was added LPS (Sigma #L4524) to give a 1 μg/ml Final Assay Concentration (FAC). 40 μl of the final preparation was aliquoted into each well of a 96-well plate. The plate thus prepared was used for compound screening.
The following method step-by-step assay was followed for compound screening. • 1. Seed THP-1 cells (25,000 cells/well) containing 1.0 μg/ml LPS in 40 μl of RPMI medium (without FBS) in 96-well, black walled, clear bottom cell culture plates coated with poly-D-lysine (VWR #734-0317) • 2. Add 5 μl compound (8 points half-log dilution, with 10 μM top dose) or vehicle (DMSO 0.1% FAC) to the appropriate wells • 3. Incubate for 3 hours at 37° C., 5% CO2 • 4. Add 5 μl nigericin (Sigma #N7143) (FAC 5 μM) to all wells • 5. Incubate for 1 hr at 37° C., 5% CO2 • 6. At the end of the incubation period, spin plates at 300xg for 3 mins and remove supernatant • 7. Then add 50 μl of resazurin (Sigma #R7017) (FAC 100 μM resazurin in RPMI medium without FBS) and incubate plates for a further 1-2 hours at 37° C. and 5% CO2 • 8. Plates were read in an Envision reader at Ex 560 nm and Em 590 nm • 9. IC50 data is fitted to a non-linear regression equation (log inhibitor vs response-variable slope 4-parameters)

[2] = target: T2, hERG cardiac potassium channel (Homo sapiens, UniProt Q12809); assay: hERG screening assay (automated patch clamp, CHO-hERG cells); type: cell-based; settings: CHO crelox hERG cell line (CHO cells that express hERG), whole-cell patch clamp, 35-37° C.
T2 construct: host or cells: CHO crelox hERG cell line (Chinese hamster cells)
Excerpt: In the drug development process of small molecules, one of the most frequent adverse side effects, leading to the failure of drugs, is the cardiac arrhythmias. Such failure is often related to the capacity of the drug to inhibit the human ether-à-go-go-related gene (hERG) cardiac potassium channel. Having no or low inhibition of the hERG cardiac potassium channel is therefore considered as beneficial.
The CHO crelox hERG cell line (ATCC reference Nr. PTA-6812, female Chinese hamster cells) was generated and validated at Roche. Ready-to-use frozen instant CHO-hERG cells were cryopreserved at Evotec (Germany) and used directly in the experiments.
The extracellular solution contains (in mM): NaCl 150; KCl 4; CaCl2) 1; MgCl2 1; HEPES 10; pH 7.2-7.4 with NaOH, osmolarity 290-330 mOsm. […]
The effects of a compound on hERG K+-currents parameters will be evaluated at 2 concentrations in at least 4 cells.
The hERG test is performed using automated patch clamp system SynchroPatch® 384 (Nanion Technologies GmbH, Germany). K+ currents are measured with the patch-voltage-clamp technique in the whole-cell configuration at 35-37° C. […]
The amplitudes of IKhERG were recorded in each concentration of drug and they were compared to the vehicle control values (taken as 100%) to define fractional blocks. […]

[3] = Metabolic stability in human hepatocytes; type: in vitro ADME
Description: Biological materials. Cryopreserved hepatocytes [mouse, rat, rabbit, monkey and human (male and female; mixed)] are obtained. Viability of hepatocytes after reconstitution is at least 80% throughout the study. Ready-to-use rat/human HepatoPac® cultures [long-term hepatocyte co-cultures; pooled (n=5 for male and n=5 for female for human)] with stromal mouse fibroblasts (negative control; pooled) with the plates for incubations, application medium and maintenance medium are acquired.
Metabolism by suspended hepatocytes. Primary pooled cryopreserved hepatocytes are reconstituted in pre-warmed William's E media containing 10% FCS, 0.05 mg/mL streptomycin and 50 U/mL penicillin and 0.4 mM L-glutamine; and 0.01 mg/mL gentamicin, 0.048 mg/mL hydrocortisone and 0.004 mg/mL insulin, to a final suspension density of 1×10^6 cells/mL. The incubation was performed fully automatically with Liquid Handling System (Tecan) equipped with a CO2 incubator with an orbital shaker. After the addition of a test compound at e.g. 1 μM to the wells (1×10^5 cells/well), the 96-well hepatocyte suspension culture plates are incubated in a 5% CO2 at 37° C. Samples are quenched by addition of acetonitrile (including an internal standard) to the incubation well at the designated time points up to 2 h.
Metabolism by HepatoPac®. […]
Samples are then centrifuged appropriately and the supernatant analyzed by LC-MS/MS. […]

NLRP3 [4] = target: T1, NLRP3; assay: Human whole blood IL-1β release assay; type: cell-based; parameters: Human whole blood in Li-heparin tubes was obtained from healthy donors; from tissue; host or cells: human whole blood from healthy donors; settings: LPS 1 μg/ml, nigericin 10 μM, IL-1β AlphaLisa, read-out: Human whole blood IL-1ß Assay IC50
Description: For systemic delivery, the ability to inhibit NLRP3 when the compounds are present within the bloodstream is of great importance. For this reason, the NLRP3 inhibitory activity of a number of compounds in human whole blood was investigated in accordance with the following protocol.
Human whole blood in Li-heparin tubes was obtained from healthy donors from a volunteer donor panel. • 1. Plate out 80 μl of whole blood containing 1 μg/ml of LPS in 96-well, clear bottom cell culture plate (Corning #3585) • 2. Add 10 μl compound (8 points half-log dilution with 10 μM top dose) or vehicle (DMSO 0.1% FAC) to the appropriate wells • 3. Incubate for 3 hours at 37° C., 5% CO2 • 4. Add 10 μl nigericin (Sigma #N7143) (10 μM FAC) to all wells • 5. Incubate for 1 hr at 37° C., 5% CO2 • 6. At the end of the incubation period, spin plates at 300xg for 5 mins to pellet cells and remove 20 μl of supernatant and add to 96-well v-bottom plates for IL-1β analysis (note: these plates containing the supernatants can be stored at −80° C. to be analysed at a later date) • 7. IL-1β was measured according to the manufacturer protocol (Perkin Elmer-AlphaLisa IL-1 Kit AL220F-5000) • 8. IC50 data is fitted to a non-linear regression equation (log inhibitor vs response-variable slope 4-parameters)

T1 sequence (Q96P20 whole entry): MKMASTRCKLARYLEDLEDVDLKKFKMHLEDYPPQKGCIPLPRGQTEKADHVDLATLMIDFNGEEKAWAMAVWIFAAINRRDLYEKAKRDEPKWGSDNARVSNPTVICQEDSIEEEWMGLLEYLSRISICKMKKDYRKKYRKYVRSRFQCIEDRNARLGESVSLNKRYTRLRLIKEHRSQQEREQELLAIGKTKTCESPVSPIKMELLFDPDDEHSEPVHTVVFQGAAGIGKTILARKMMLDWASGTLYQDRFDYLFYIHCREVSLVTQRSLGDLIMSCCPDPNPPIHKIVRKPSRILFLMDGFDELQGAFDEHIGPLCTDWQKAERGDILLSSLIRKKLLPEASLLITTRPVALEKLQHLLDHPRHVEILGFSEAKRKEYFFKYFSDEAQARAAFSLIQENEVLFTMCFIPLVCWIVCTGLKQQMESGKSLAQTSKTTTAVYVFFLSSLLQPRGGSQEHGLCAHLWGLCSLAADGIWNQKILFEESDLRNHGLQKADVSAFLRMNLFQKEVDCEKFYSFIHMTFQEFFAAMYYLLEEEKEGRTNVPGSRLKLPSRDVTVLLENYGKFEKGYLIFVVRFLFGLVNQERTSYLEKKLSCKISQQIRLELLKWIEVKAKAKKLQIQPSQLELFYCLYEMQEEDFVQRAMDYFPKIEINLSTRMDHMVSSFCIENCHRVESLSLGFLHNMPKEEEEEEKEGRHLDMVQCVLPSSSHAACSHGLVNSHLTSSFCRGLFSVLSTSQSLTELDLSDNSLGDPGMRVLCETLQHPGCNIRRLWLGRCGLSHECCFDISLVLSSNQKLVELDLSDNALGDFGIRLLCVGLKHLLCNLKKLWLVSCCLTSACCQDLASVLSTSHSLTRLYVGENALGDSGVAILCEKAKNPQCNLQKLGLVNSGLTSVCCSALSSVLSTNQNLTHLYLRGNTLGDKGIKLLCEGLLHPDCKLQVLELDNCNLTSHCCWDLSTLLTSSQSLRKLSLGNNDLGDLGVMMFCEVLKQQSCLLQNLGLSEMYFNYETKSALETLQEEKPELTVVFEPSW
T2 sequence (Q12809 whole entry): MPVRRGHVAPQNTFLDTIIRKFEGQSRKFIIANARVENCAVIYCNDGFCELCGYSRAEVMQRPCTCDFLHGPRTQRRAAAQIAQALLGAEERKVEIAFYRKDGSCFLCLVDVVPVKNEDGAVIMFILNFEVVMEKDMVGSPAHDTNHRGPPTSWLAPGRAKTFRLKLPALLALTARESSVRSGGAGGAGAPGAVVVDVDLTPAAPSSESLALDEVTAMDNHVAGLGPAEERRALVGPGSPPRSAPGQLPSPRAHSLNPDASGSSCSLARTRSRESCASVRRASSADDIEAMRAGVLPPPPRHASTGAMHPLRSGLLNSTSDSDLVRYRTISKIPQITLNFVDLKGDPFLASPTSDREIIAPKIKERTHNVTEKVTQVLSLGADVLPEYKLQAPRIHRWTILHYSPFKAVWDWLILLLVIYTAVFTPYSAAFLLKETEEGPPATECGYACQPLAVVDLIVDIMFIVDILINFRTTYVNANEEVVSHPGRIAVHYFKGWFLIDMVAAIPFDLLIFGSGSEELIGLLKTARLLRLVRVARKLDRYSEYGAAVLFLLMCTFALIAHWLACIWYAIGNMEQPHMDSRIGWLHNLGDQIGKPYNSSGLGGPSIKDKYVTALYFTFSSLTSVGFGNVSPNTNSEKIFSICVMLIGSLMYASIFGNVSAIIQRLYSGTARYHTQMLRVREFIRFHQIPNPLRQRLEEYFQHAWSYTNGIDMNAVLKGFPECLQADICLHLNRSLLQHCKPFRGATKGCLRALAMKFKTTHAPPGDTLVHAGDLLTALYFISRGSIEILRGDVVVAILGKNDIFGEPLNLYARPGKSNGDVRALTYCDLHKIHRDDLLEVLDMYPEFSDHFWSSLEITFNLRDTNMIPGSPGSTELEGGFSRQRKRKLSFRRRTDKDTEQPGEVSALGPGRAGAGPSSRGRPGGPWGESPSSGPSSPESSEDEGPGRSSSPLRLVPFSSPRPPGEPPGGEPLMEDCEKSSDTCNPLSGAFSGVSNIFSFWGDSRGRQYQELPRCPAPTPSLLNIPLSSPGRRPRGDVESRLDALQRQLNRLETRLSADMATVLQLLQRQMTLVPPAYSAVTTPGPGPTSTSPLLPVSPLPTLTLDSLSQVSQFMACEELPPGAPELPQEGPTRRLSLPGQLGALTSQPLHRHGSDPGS

Row | SMILES | IC50 (NLRP3 [1]) | IC20 [2] | Clint at 1 μM [3] | IC50 (NLRP3 [4])
1 | CCN1CCC[C@@H](Nc2nnc(-c3ccc4c(c3O)CCC4)n(C)c2=O)C1 [Example 1, 6-[[(3R)-1-Ethyl-3-piperidyl]amino]-3-(4-hydroxyindan-5-yl)-4-methyl-1,2,4-triazin-5-one] | 1.5 nM | > 10 µM | <0.2 μl/min/10E6 cells | 8 nM
2 | CCN1CCC[C@@H](Nc2nnc(-c3ccc4c(c3O)CC4)n(C)c2=O)C1 [Example 2] | 5.8 nM | – | – | 10 nM
3 | CCN1CCC[C@@H](N(C)c2nnc(-c3ccc4c(c3O)CCC4)n(C)c2=O)C1 [Example 3, 6-[[(3R)-1-Ethyl-3-piperidyl]-methyl-amino]-3-(4-hydroxyindan-5-yl)-4-methyl-1,2,4-triazin-5-one] | 13 nM | – | – | 26 nM
